Reference: patent US20230144186A1 (The Trustees of the University of Pennsylvania, priority 2020, published 2023)
Where two headings read alike, the source gives them in different places.

Columns and labels:
[1] = tested on: human H1N1 influenza A strain PR8; type: cell-based; conditions: 0.1% quinine in 0.9% sodium chloride from 1 h post infection, daily, 72 hrs
nitric oxide (NO) = assay: NO production after nasal instillation in ferrets (nasal wash); type: in vivo, ferret
[2] = tested on: human ciliated sinonasal air-liquid-interface (ALI) cells
airway inflammation = conditions: murine model; cited from earlier work
[3] = tested on: SARS-CoV-2 (UPenn/Philadelphia strain); assay: Human sinonasal ALI infection with SARS-CoV-2, nucleocapsid staining and quantitative fluorescence imaging; conditions: 1 mg/mL quinine sulfate, 48 hrs; average of two measurements

Structure (SMILES): C=C[C@H]1C[N@@]2CC[C@H]1C[C@H]2[C@H](O)c1ccnc2ccc(OC)cc12 [quinine]
- transcripts for both the NP and IAV-M genes ([1]; subject A cells, MOI of 1): lesser relative reduction
- transcripts for both the NP and IAV-M genes ([1]; subject B (more mature) ALI culture): marked relative reduction
- NO in nasal wash (nitric oxide (NO); 5 min after 200 μL of 1 mg/mL solution intranasal): 6.64 ng/mL
- NO in nasal wash (nitric oxide (NO); 10 min after 200 μL of 1 mg/mL solution intranasal): 6.42 ng/mL
- NO in nasal wash (nitric oxide (NO); 15 min after 200 μL of 1 mg/mL solution intranasal): 6.52 ng/mL
- cell viability [2]: remained viable and visually healthy
- airway inflammation (BAL, histology, PFTs) (airway inflammation): reduce airway inflammation
- Quinine Rx (% infected) [3]: 2.32%
